Data published in patent publication US4826845A, “3(2H)-pyridazinones and pharmaceutical compositions thereof” (Richter Gedeon Vegyeszeti Gyar T.R., priority 1985, dated 1989).
Counter-ions that a name gives are not always drawn. Like-named read-outs stand apart in the source and are kept apart here.

Columns and labels:
[1] = target: T1, potential-mediated calcium channel (Rattus norvegicus, UniProt P22002); experiment: Calcium-antagonism on isolated portal vein: potential-mediated calcium channel; format: cell-based
T1 construct: from tissue; host or cells: isolated rat portal vein
Protocol: (§1) The calcium-antagonism of the compounds of the invention was studied on an isolated vessel preparation based on the work of M. Fiol de Cuneo et al. [Arch. Int. Pharmacodyn.
(§2) Male CFY rats with a body-weight of 150 to 200 g were bled by decapitation and the portal vein was immediately prepared starting from the hepatic portal. The vessel was longitudinally incised, bound to a transducer registering the contractions and incubated under a tension of 1 g at 37° C. in a calcium-free Krebs-Ringer bicarbonate solution aerated with carbogen. After an equilibration lasting for 30 minutes, the functioning of the receptor-mediated and the K^+ -depolarisation-mediated calcium channels, respectively, were investigated.
For investigating the potential-mediated calcium channel, the vein placed in the calcium-free Krebs-Ringer solution was washed by adding and then by removing 80 millimoles of potassium chloride while maintaining the isotania until no contraction appeared on repeatedly adding potassium chloride.
(§3) All measurements were carried out at 37° C. while bubbling through carbogen.

[2] = tested on: pre- and postsynaptic alpha receptors; experiment: Action on the pre- and postsynaptic adrenergic alpha receptors on the stimulated mouse vas deferens; format: cell-based; settings: concentration 10^-7 mole
Protocol: The method of Hughes et al. [Brit. J. Phamacol. 51, pp. 139-140P (1975)] was used. The preparations suspended in a modified Krebs solution at 31° C. were excited by the field stimulation method [rectangular paired impulses with 1 msec interval, supramaximal potential (70 to 75 V=8 to 9 V/cm) and 100 msec impulse interval, pairs repeated in each 10 sec]. After stimulation, norepinephrine (NE) was dropped into the organ bath and a dose-response curve was taken up. Thus, the effect of both the endogenous norepinephrine liberated by stimulation and the exogenous norepinephrine could be studied before and after adding the substance to be tested.

[3] = tested on: adrenergic receptor-mediated calcium channel; experiment: Calcium-antagonism on isolated portal vein: adrenergic receptor-mediated calcium channel; format: cell-based; settings: rat portal vein, 1×10^-5 mole norepinephrine, 37° C.; read-out: Inhibition of the calcium channel, adrenergic receptor-mediated, IC50
Protocol: as §1, §2, §3

anaesthetized cats = experiment: Measurement of the hypotensive effect on anaesthetized cats (i.v. screening); format: in vivo, cat; settings: for Mean arterial pressure decrease: anaesthetized cats; for blood pressure lowering action (in words): intravenous, summary of Table 1
Protocol: A tube was introduced into the trachea of cats anaesthetized by the intraperitoneal (i.p.) administration of 35 mg/kg of sodium pentobarbital whereby the spontaneous breathing was supported. On the one side of the animals, the femoral artery and vein were exposed and a polyethylene cannula was introduced in both vessels each. The substances to be tested were administered through the venous cannula. The mean arterial blood pressure was measured by connecting the arterial cannula with a Statham P 23 Db pressure transducer and electromanometer.
As a first screening dose, 5 mg/kg of the compounds to be tested were intravenously (i.v.) administered.

conscious SH rats [4] = experiment: Antihypertensive effect on conscious, spontaneously hypertensive (SH) rats after oral administration; format: in vivo, rat
Description: The systolic blood pressure was indirectly measured by the tail-cuff method. The compounds to be tested were introduced orally (p.o.) to the animals. The blood pressure measurements were made by using a 5-channel automatized equipment.

[5] = tested on: pressor (blood pressure increasing) effect of epinephrine; experiment: Inhibition of the pressor effect of epinephrine; settings: in vivo
renal artery = experiment: Renal arterial vascular resistance in anaesthetized dogs; format: in vivo, Beagle dog; settings: 1.0 mg/kg intraduodenal
Protocol: (§4) Beagle dogs of both sexes were anaesthetized by the intravenous administration of 40 mg/kg of sodium pentobarbital. A cannula was introduced to the femoral artery and vein each on one side for the intravenous administration of the compounds to be tested as well as for measuring the blood pressure.
In an other series of these experiments, the substances were administered through a duodenal tube. Similarly to the experiments carried out on cats, the systemic arterial blood pressure was measured by using an electromanometer and the cardiotachometer was triggered by the heart rate wave sign.
The renal artery on one side was exposed retroperitoneally and fitted with an electromagnetic flow-meter head for measuring the blood flow of the renal arterial vascular bed and for determining the local vascular resistance.

conscious SH rats [6] = experiment: Antihypertensive effect on conscious SH rats after acute oral treatment; format: in vivo, rat; settings: SH rats
Description: (§5) These experiments were accomplished on conscious spontaneously hypertensive (SH) and renally hypertensive rats.
(§6) The systolic blood pressure and heart rate of the animals were indirectly measured by using the tail-cuff method by means of a 5- channel automatized equipment.

[7] = tested on: conscious renal hypertensive rats; experiment: Antihypertensive effect on conscious renal hypertensive rats after acute oral treatment; format: in vivo, rat; settings: 1.25 mg/kg p.o.
Description: as §5, §6

[8] = tested on: postsynaptic alpha1 receptor; experiment: Kinetic analysis on rabbit aorta strip preparation: postsynaptic alpha1 receptor antagonism; format: cell-based
Protocol: Male rabbits with a body-weight of 3 to 3.5 kg were used for these experiments. […] A dose response curve was plotted by using norepinephrine and a dose selected from the steepest interval of the curve was added repeatedly to the bath until obtaining equal responses. Then, the compound to be tested was added and after 5 minutes, the dose series of norepinephrine was repeated. The extent of the inhibition was expressed as percentage.

anaesthetized dogs = experiment: Hypotensive and heart rate effects on anaesthetized dogs after intravenous or intraduodenal administration; format: in vivo, Beagle dog
Protocol: as §4
In an other series of these experiments, the substances were administered through a duodenal tube. Similarly to the experiments carried out on cats, the systemic arterial blood pressure was measured by using an electromanometer and the cardiotachometer was triggered by the heart rate wave sign. […]

[9] = rat portal vein, 80 millimoles KCl, 37° C., read-out: Inhibition of the calcium channel, potential-mediated, IC50

T1 sequence (P22002 whole entry): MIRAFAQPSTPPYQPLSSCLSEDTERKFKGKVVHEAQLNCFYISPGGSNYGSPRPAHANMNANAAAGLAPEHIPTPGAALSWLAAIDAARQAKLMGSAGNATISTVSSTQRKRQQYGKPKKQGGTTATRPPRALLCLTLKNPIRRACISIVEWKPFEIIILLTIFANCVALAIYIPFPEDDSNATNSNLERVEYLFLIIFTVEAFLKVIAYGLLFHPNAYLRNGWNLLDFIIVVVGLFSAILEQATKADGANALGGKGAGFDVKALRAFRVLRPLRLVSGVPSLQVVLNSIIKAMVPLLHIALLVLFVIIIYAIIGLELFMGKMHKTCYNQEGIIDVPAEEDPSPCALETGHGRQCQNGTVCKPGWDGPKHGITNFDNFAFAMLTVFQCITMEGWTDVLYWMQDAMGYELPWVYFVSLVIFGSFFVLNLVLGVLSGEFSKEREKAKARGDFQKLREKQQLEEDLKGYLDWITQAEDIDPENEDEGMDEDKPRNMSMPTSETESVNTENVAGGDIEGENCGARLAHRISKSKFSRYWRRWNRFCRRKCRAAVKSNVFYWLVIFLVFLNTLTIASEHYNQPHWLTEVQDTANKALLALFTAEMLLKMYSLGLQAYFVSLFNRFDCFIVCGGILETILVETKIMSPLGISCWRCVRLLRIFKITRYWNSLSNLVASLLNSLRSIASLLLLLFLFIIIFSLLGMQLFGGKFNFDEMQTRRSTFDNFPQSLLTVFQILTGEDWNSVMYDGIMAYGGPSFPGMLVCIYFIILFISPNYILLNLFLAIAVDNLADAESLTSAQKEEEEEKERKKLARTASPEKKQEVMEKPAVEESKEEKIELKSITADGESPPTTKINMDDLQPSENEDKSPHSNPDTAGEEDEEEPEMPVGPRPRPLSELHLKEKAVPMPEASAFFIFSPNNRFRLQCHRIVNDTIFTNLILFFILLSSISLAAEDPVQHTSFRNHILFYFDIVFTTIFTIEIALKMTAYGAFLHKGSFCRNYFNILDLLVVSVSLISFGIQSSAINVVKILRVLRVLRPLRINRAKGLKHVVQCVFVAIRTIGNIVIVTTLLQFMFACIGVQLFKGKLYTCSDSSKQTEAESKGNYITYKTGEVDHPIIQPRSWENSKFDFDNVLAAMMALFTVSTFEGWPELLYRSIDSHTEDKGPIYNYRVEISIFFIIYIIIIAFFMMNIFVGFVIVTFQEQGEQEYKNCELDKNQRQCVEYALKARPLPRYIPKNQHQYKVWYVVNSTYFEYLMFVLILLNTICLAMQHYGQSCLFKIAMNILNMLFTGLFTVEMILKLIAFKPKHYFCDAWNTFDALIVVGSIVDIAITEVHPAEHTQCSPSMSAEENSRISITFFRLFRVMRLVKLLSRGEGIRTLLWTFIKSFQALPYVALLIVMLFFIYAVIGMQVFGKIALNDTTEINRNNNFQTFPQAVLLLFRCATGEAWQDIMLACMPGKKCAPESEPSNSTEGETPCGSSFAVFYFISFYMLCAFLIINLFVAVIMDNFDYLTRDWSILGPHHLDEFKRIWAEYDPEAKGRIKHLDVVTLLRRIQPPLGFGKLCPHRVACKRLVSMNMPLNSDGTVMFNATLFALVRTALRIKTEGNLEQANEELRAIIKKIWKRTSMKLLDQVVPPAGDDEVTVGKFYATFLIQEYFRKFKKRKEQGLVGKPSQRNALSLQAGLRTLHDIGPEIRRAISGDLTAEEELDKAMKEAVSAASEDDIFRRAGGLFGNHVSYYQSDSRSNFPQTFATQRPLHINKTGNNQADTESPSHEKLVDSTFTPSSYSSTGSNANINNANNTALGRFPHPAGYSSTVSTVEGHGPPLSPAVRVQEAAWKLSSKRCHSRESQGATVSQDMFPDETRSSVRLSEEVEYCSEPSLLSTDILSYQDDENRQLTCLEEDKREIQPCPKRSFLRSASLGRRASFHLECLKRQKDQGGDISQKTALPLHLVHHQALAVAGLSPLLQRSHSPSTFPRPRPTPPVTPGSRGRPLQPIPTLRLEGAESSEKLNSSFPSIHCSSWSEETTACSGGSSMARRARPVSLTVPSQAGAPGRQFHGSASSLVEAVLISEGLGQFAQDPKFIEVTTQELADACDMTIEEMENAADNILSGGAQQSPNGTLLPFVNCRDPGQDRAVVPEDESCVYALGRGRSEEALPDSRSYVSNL
T1 sequence (P54290 25-944 partner limits assumed): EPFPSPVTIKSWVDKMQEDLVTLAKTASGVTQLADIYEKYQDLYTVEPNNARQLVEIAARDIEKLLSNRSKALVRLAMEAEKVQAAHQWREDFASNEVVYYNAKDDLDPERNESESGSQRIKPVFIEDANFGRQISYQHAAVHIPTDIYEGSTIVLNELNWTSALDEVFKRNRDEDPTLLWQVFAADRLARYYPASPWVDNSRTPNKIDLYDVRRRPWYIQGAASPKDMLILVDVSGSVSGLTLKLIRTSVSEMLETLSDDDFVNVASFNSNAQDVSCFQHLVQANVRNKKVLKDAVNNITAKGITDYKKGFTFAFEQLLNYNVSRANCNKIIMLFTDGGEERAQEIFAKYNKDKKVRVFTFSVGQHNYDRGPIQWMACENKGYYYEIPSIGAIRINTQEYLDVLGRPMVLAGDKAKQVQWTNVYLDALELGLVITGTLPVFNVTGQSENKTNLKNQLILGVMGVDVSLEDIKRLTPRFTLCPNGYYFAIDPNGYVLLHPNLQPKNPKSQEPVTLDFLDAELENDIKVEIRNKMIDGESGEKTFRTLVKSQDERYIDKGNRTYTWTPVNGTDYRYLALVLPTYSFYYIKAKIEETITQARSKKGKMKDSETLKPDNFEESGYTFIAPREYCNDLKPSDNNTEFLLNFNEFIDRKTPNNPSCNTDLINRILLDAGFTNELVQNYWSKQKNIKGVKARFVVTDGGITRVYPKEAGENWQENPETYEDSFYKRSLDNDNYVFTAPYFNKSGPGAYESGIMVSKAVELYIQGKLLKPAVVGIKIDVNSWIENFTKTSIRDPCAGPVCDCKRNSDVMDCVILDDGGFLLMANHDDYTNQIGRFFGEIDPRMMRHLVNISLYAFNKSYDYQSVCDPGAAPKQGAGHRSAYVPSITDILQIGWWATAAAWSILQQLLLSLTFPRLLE
T1 sequence (P54290 945-1091 partner limits assumed): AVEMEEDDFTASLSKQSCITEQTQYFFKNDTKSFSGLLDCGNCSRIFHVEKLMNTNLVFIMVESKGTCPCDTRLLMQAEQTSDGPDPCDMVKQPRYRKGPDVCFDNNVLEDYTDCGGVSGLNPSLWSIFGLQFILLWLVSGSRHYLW

O=c1ccc(Cl)nn1CCCNCC1COc2ccccc2O1 (centres unmarked) [Example 2, 2-[3-(benzo[1,4]dioxan-2-yl-methylamino)-1-propyl]-6-chloro-3(2H)-pyridazinone hydrochloride]
IC50 [1, 9]: 10 µM | Inhibition of the stimulation [2]: 0% | IC50 [3]: 4 µM | Mean arterial pressure decrease (anaesthetized cats; 1.0 mg/kg i.v.): -90 Hgmm | blood pressure lowering action (in words) (anaesthetized cats): particularly expressed

O=c1ccc(Cl)nn1CCCNCCOc1ccccc1 [Example 4]
Decrease in the systolic blood pressure (conscious SH rats [4]; 50 mg/kg p.o.): -33% | IC50 [1, 9]: 0.2 µM | IC50 [3]: 0.1 µM | Mean arterial pressure decrease (anaesthetized cats; 5.0 mg/kg i.v.): -70 Hgmm | blood pressure lowering action (in words) (anaesthetized cats): particularly expressed

O=c1cccnn1CCCNCCOc1ccccc1 [Example 5]
Decrease in the systolic blood pressure (conscious SH rats [4]; 10 mg/kg p.o.): -45% | Decrease in the systolic blood pressure (conscious SH rats [4]; 50 mg/kg p.o.): -42% | inhibition of the pressor effect of epinephrine (in words) [5]: significant inhibition | IC50 [1, 9]: 50 µM | Inhibition of the stimulation [2]: 16.2% | IC50 [3]: 20 µM | Mean arterial pressure decrease (anaesthetized cats; 5.0 mg/kg i.v.): -100 Hgmm | blood pressure lowering action (in words) (anaesthetized cats): particularly expressed

O=c1ccc(-n2cccc2)nn1CCCNCCOc1ccccc1 [Example 6]
Mean arterial pressure decrease (anaesthetized cats; 5.0 mg/kg i.v.): -35 Hgmm

O=c1ccc(Cl)nn1CCCNCCSc1ccccc1 [Example 7]
Mean arterial pressure decrease (anaesthetized cats; 5.0 mg/kg i.v.): -35 Hgmm

O=c1ccc(Cl)nn1CCCNCCOc1ccccc1Cl [Example 8]
Decrease in the systolic blood pressure (conscious SH rats [4]; 50 mg/kg p.o.): -18% | inhibition of the pressor effect of epinephrine (in words) [5]: significant inhibition | Mean arterial pressure decrease (anaesthetized cats; 5.0 mg/kg i.v.): -80 Hgmm | blood pressure lowering action (in words) (anaesthetized cats): particularly expressed

O=c1cccnn1CCCNCCCOc1ccccc1 [Example 9]
Mean arterial pressure decrease (anaesthetized cats; 5.0 mg/kg i.v.): -55 Hgmm

O=c1cccnn1CCCNCCOc1ccccc1F [Example 10]
Decrease in the systolic blood pressure (conscious SH rats [4]; 50 mg/kg p.o.): -25% | inhibition of the pressor effect of epinephrine (in words) [5]: significant inhibition | Mean arterial pressure decrease (anaesthetized cats; 5.0 mg/kg i.v.): -60 Hgmm

O=c1cccnn1CCNCCOc1ccccc1 [Example 21]
Mean arterial pressure decrease (anaesthetized cats; 5.0 mg/kg i.v.): -60 Hgmm

CCOC(=O)N1CCN(c2ccc(=O)n(CCNCCOc3ccccc3)n2)CC1 [Example 22]
Mean arterial pressure decrease (anaesthetized cats; 5.0 mg/kg i.v.): -35 Hgmm

Cc1cc(C)n(-c2ccc(=O)n(CCNCCOc3ccccc3)n2)n1 [Example 23]
Mean arterial pressure decrease (anaesthetized cats; 5.0 mg/kg i.v.): -65 Hgmm

O=c1cccnn1CCNCC1COc2ccccc2O1 (centres unmarked) [Example 27]
Mean arterial pressure decrease (anaesthetized cats; 5.0 mg/kg i.v.): -30 Hgmm

O=c1ccc(N2CCOCC2)nn1CCNCCOc1ccccc1 [Example 28]
Mean arterial pressure decrease (anaesthetized cats; 5.0 mg/kg i.v.): -50 Hgmm

COC(=O)C1=C(C)NC(C)=C(C(=O)OC)C1c1ccccc1[N+](=O)[O-] [Nifedipine, 2,6-dimethyl-4-(2-nitrophenyl)-1,4-dihydropyridine-3,5-dicarboxylic acid dimethyl ester, reference compound]
IC50 [3]: 2 µM

COc1cc2nc(N3CCN(C(=O)c4ccco4)CC3)nc(N)c2cc1OC.Cl [Prazosine, 1-(4-amino-6,7-dimethoxy-2-quinazolinyl)-4-(2-furylcarbonyl)-piperazine hydrochloride, reference compound]
decrease in resistance of the renal artery (renal artery): about 40% | IC50 [1]: 500 µM | antihypertensive effect in the 5th hour (conscious SH rats [6]; 1.25 mg/kg p.o., 5th hour): 26% | hypotension [7]: 26% | hypotension in the 5th hour ([7]; 5th hour): 20% | pA2 ([8]; negative logarithm of the molar antagonist concentration inhibiting the agonist to 50%, norepinephrine agonist, 5 min): 9.45 | Slope of the curve ([8]; rabbit aorta, norepinephrine): -0.96 | IC50 [3]: 0.009 µM | hypotensive action relative to same intraduodenal dose of compound of Example 3 (or 12) (anaesthetized dogs; prazosine 1 mg/kg intraduodenal): only the half

COc1ccc(CCN(C)CCCC(C#N)(c2ccc(OC)c(OC)c2)C(C)C)cc1OC (centres unmarked) [Verapamil, reference compound]
antihypertensive effect (conscious SH rats [6]; 50 mg/kg p.o.): 30% | IC50 [3]: 1 µM | hypotension (anaesthetized dogs; 10 mg/kg intraduodenal): 30% | time of maximum effect (anaesthetized dogs; 10 mg/kg intraduodenal): 30 min
